{"source": "patent US8802597B2", "about": "“Herbicidal pyrimidines” (E I du Pont de Nemours and Company, priority 2003, dated 2014)", "assay_in_all_cases": "Test C pre/postemergence", "type_in_all_cases": "in vivo", "key": {"[1]": {"test_system": "bermudagrass (Cynodon dactylon)", "conditions": "Cynodon dactylon; for pest or weed control at 8 g/ha: 8 g ai/ha; for pest or weed control at 16 g/ha: 16 g ai/ha; for pest or weed control at 31 g/ha: 31 g ai/ha; for pest or weed control at 62 g/ha: 62 g ai/ha", "outline": "(§1)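 Injury scored visually 12–14 days after application on 0–100 scale (100 = complete control), relative to controls. Compounds, formulated with surfactant in non-phytotoxic solvent, applied to soil at planting (pre) or to 1- to 4-leaf plants 2–18 cm tall (post) in greenhouse.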"}, "[2]": {"test_system": "Surinam grass (Brachiaria decumbens)", "conditions": "Urochloa decumbens; for pest or weed control at 8 g/ha: 8 g ai/ha; for pest or weed control at 16 g/ha: 16 g ai/ha; for pest or weed control at 31 g/ha: 31 g ai/ha; for pest or weed control at 62 g/ha: 62 g ai/ha", "outline": "as §1"}, "[3]": {"test_system": "common (oilseed) sunflower (Helianthus annuus)", "conditions": "Helianthus annuus, pre-emergence, Preemergence, read-out: Plant response rating, Sunflower", "outline": "as §1"}, "[4]": {"test_system": "cocklebur (Xanthium strumarium)", "conditions": "Xanthium strumarium; for pest or weed control at 8 g/ha: 8 g ai/ha; for pest or weed control at 16 g/ha: 16 g ai/ha; for pest or weed control at 31 g/ha: 31 g ai/ha; for pest or weed control at 62 g/ha: 62 g ai/ha", "outline": "as §1"}, "[5]": {"test_system": "morningglory (Ipomoea coccinea)", "conditions": "Ipomoea; for pest or weed control at 8 g/ha: 8 g ai/ha; for pest or weed control at 31 g/ha: 31 g ai/ha; for pest or weed control at 62 g/ha: 62 g ai/ha", "outline": "as §1"}, "[6]": {"test_system": "johnsongrass (Sorghum halepense)", "conditions": "Sorghum halepense; for pest or weed control at 8 g/ha: 8 g ai/ha; for pest or weed control at 16 g/ha: 16 g ai/ha; for pest or weed control at 31 g/ha: 31 g ai/ha; for pest or weed control at 62 g/ha: 62 g ai/ha", "outline": "as §1"}, "[7]": {"conditions": "post-emergence, Postemergence, read-out: Plant response rating (scale of 0 to 100), Bermudagrass"}, "[8]": {"conditions": "pre-emergence, Preemergence, scale 0 to 100, 0 no effect, 100 complete control, read-out: Plant response rating, Bermudagrass"}, "[9]": {"conditions": "post-emergence, Postemergence, read-out: Plant response rating (scale of 0 to 100), Surinam Grass"}, "[10]": {"conditions": "pre-emergence, Preemergence, scale 0 to 100, 0 no effect, 100 complete control, read-out: Plant response rating, Surinam Grass"}, "[11]": {"conditions": "post-emergence, Postemergence, read-out: Plant response rating (scale of 0 to 100), Cocklebur"}, "[12]": {"conditions": "pre-emergence, Preemergence, scale 0 to 100, 0 no effect, 100 complete control, read-out: Plant response rating, Cocklebur"}, "[13]": {"conditions": "post-emergence, Postemergence, read-out: Plant response rating (scale of 0 to 100), Morningglory"}, "[14]": {"conditions": "pre-emergence, Preemergence, scale 0 to 100, 0 no effect, 100 complete control, read-out: Plant response rating, Morningglory"}, "[15]": {"conditions": "post-emergence, Postemergence, read-out: Plant response rating (scale of 0 to 100), Johnsongrass"}, "[16]": {"conditions": "pre-emergence, Preemergence, scale 0 to 100, 0 no effect, 100 complete control, read-out: Plant response rating, Johnsongrass"}}, "note": "Read-outs that look alike come from different tables or passages of the source."}
{"smiles": "Nc1nc(-c2ccc(Br)cc2)nc(C(=O)O)c1Cl", "note": "[Compound 95, 6-amino-2-(4-bromophenyl)-5-chloro-4-pyrimidinecarboxylic acid]", "values": [{"measurement": "pest or weed control at 8 g/ha", "setting": "[1]; post-emergence, Postemergence, scale 0 to 100 (0 no effect, 100 complete control), read-out: Plant response rating, Bermudagrass", "result": 70, "unit": "%"}, {"measurement": "pest or weed control at 16 g/ha", "setting": "[1]; [7]", "result": 70, "unit": "%"}, {"measurement": "pest or weed control at 31 g/ha", "setting": "[1]; [7]", "result": 85, "unit": "%"}, {"measurement": "pest or weed control at 62 g/ha", "setting": "[1]; post-emergence, Postemergence, scale 0 to 100 (0 no effect, 100 complete control), read-out: Bermudagrass plant response rating", "result": 85, "unit": "%"}, {"measurement": "pest or weed control at 8 g/ha", "setting": "[1]; pre-emergence, Preemergence, scale 0 to 100 (0 no effect, 100 complete control), read-out: Plant response rating, Bermudagrass", "result": 0, "unit": "%"}, {"measurement": "pest or weed control at 16 g/ha", "setting": "[1]; [8]", "result": 0, "unit": "%"}, {"measurement": "pest or weed control at 31 g/ha", "setting": "[1]; [8]", "result": 0, "unit": "%"}, {"measurement": "pest or weed control at 62 g/ha", "setting": "[1]; [8]", "result": 55, "unit": "%"}, {"measurement": "pest or weed control at 8 g/ha", "setting": "[2]; post-emergence, Postemergence, scale 0 to 100, read-out: Plant response rating, Surinam Grass", "result": 55, "unit": "%"}, {"measurement": "pest or weed control at 16 g/ha", "setting": "[2]; [9]", "result": 65, "unit": "%"}, {"measurement": "pest or weed control at 31 g/ha", "setting": "[2]; [9]", "result": 70, "unit": "%"}, {"measurement": "pest or weed control at 62 g/ha", "setting": "[2]; [9]", "result": 75, "unit": "%"}, {"measurement": "pest or weed control at 8 g/ha", "setting": "[2]; pre-emergence, Preemergence, scale 0 to 100 (0 no effect, 100 complete control), read-out: Plant response rating, Surinam Grass", "result": 0, "unit": "%"}, {"measurement": "pest or weed control at 16 g/ha", "setting": "[2]; [10]", "result": 0, "unit": "%"}, {"measurement": "pest or weed control at 31 g/ha", "setting": "[2]; [10]", "result": 5, "unit": "%"}, {"measurement": "pest or weed control at 62 g/ha", "setting": "[2]; [10]", "result": 10, "unit": "%"}, {"measurement": "pest or weed control at 8 g/ha", "setting": "[3]; 8 g ai/ha, scale 0 to 100 (0 no effect, 100 complete control)", "result": 5, "unit": "%"}, {"measurement": "pest or weed control at 16 g/ha", "setting": "[3]; 16 g ai/ha, scale 0 to 100, 0 no effect, 100 complete control", "result": 40, "unit": "%"}, {"measurement": "pest or weed control at 31 g/ha", "setting": "[3]; 31 g ai/ha, scale 0 to 100, 0 no effect, 100 complete control", "result": 95, "unit": "%"}, {"measurement": "pest or weed control at 62 g/ha", "setting": "[3]; 62 g ai/ha, scale 0 to 100, 0 no effect, 100 complete control", "result": 100, "unit": "%"}, {"measurement": "pest or weed control at 8 g/ha", "setting": "[4]; post-emergence, Postemergence, scale 0 to 100, read-out: Plant response rating, Cocklebur", "result": 100, "unit": "%"}, {"measurement": "pest or weed control at 16 g/ha", "setting": "[4]; [11]", "result": 100, "unit": "%"}, {"measurement": "pest or weed control at 31 g/ha", "setting": "[4]; [11]", "result": 100, "unit": "%"}, {"measurement": "pest or weed control at 62 g/ha", "setting": "[4]; [11]", "result": 100, "unit": "%"}, {"measurement": "pest or weed control at 8 g/ha", "setting": "[4]; pre-emergence, Preemergence, scale 0 to 100 (0 no effect, 100 complete control), read-out: Plant response rating, Cocklebur", "result": 0, "unit": "%"}, {"measurement": "pest or weed control at 16 g/ha", "setting": "[4]; [12]", "result": 0, "unit": "%"}, {"measurement": "pest or weed control at 31 g/ha", "setting": "[4]; [12]", "result": 0, "unit": "%"}, {"measurement": "pest or weed control at 62 g/ha", "setting": "[4]; [12]", "result": 60, "unit": "%"}, {"measurement": "pest or weed control at 8 g/ha", "setting": "[5]; post-emergence, Postemergence, scale 0 to 100, read-out: Plant response rating, Morningglory", "result": 60, "unit": "%"}, {"measurement": "pest or weed control at 31 g/ha", "setting": "[5]; [13]", "result": 80, "unit": "%"}, {"measurement": "pest or weed control at 62 g/ha", "setting": "[5]; [13]", "result": 95, "unit": "%"}, {"measurement": "pest or weed control at 8 g/ha", "setting": "[5]; pre-emergence, Preemergence, scale 0 to 100 (0 no effect, 100 complete control), read-out: Plant response rating, Morningglory", "result": 0, "unit": "%"}, {"measurement": "pest or weed control at 16 g/ha", "setting": "[5]; pre-emergence, Preemergence, 16 g ai/ha, scale 0 to 100, 0 no effect, 100 complete control, read-out: Plant response rating, Morningglory", "result": 0, "unit": "%"}, {"measurement": "pest or weed control at 31 g/ha", "setting": "[5]; [14]", "result": 10, "unit": "%"}, {"measurement": "pest or weed control at 62 g/ha", "setting": "[5]; [14]", "result": 60, "unit": "%"}, {"measurement": "pest or weed control at 8 g/ha", "setting": "[6]; post-emergence, Postemergence, scale 0 to 100, read-out: Plant response rating, Johnsongrass", "result": 55, "unit": "%"}, {"measurement": "pest or weed control at 16 g/ha", "setting": "[6]; [15]", "result": 70, "unit": "%"}, {"measurement": "pest or weed control at 31 g/ha", "setting": "[6]; [15]", "result": 75, "unit": "%"}, {"measurement": "pest or weed control at 62 g/ha", "setting": "[6]; [15]", "result": 90, "unit": "%"}, {"measurement": "pest or weed control at 8 g/ha", "setting": "[6]; pre-emergence, Preemergence, scale 0 to 100 (0 no effect, 100 complete control), read-out: Plant response rating, Johnsongrass", "result": 0, "unit": "%"}, {"measurement": "pest or weed control at 16 g/ha", "setting": "[6]; [16]", "result": 50, "unit": "%"}, {"measurement": "pest or weed control at 31 g/ha", "setting": "[6]; [16]", "result": 60, "unit": "%"}, {"measurement": "pest or weed control at 62 g/ha", "setting": "[6]; [16]", "result": 80, "unit": "%"}]}
